According to patent publication US9440972B2, “Pyrido[2,3-d]pyrimidine-2,4(1 H,3H)-dione derivatives” (Hydra Biosciences, Inc., priority 2014, dated 2016):

Columns and labels:
[1] = target: T1, TRPC5 channel (Homo sapiens, UniProt Q9UL62); assay: Patch clamp experiments (whole-cell, LaCl3-activated TRPC5 current); type: cell-based; conditions: whole-cell patch clamp in TRPC5-expressing HEK293 TREx cells; block of inward and outward currents in continued presence of LaCl3; IC50 estimated
T1 construct: expressed in transfected cells; host or cells: HEK293/TREx (Invitrogen), tetracycline-induced
T1 sequence (Q9UL62 1-973): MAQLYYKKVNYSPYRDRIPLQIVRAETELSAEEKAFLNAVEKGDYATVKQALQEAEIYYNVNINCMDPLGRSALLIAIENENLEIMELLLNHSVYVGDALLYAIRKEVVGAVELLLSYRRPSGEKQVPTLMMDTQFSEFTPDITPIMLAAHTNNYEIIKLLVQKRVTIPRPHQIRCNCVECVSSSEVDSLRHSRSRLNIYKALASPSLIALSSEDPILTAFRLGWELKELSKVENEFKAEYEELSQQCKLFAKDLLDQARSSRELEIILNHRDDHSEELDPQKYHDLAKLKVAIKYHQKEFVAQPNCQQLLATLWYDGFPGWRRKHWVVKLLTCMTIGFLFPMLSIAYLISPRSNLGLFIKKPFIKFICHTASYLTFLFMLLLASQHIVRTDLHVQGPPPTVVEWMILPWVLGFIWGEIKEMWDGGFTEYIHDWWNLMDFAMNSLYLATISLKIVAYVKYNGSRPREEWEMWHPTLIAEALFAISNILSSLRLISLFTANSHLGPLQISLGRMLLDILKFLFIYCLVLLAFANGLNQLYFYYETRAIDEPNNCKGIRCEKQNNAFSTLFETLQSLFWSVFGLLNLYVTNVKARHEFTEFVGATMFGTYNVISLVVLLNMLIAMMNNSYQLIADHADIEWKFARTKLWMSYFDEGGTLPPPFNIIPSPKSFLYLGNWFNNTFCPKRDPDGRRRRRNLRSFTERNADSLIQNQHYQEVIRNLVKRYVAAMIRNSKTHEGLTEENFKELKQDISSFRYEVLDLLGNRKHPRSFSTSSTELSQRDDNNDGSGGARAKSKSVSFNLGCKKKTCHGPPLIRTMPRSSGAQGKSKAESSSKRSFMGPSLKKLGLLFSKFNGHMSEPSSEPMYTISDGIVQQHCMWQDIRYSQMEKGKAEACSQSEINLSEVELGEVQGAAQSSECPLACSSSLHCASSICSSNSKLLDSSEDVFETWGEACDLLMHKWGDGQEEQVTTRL
Source text: Patch clamp experiments permit the detection of currents through the TRPC5 channel in the cell line described above. In normal whole-cell patch clamp recordings, a glass electrode is brought into contact with a single cell and a high-resistance (gigaohm) seal is established with the cell membrane. The membrane is then ruptured to achieve the whole-cell configuration, permitting control of the voltage of the cell membrane and measurement of currents flowing across the membrane using the amplifier attached to the electrode and resulting in the replacement of cytoplasm with the pipette solution. A perfusion system permits control of the extracellular solution, including the addition of blockers and activators of the current. The current can be activated by including 1.4 μM free Ca^2+ in the pipette (intracellular) solution, and 80 μM LaCl3 in the extracellular solution.
TRPC5 cells were induced 20-48 hours, removed from growth plates, and replated at low density (to attain good single-cell physical separation) on glass coverslips for measurement. In some cases, cells were grown in low density overnight on glass coverslips. Patch clamp recordings were made in the whole-cell mode with a holding potential of −40 mV. Every 5 seconds, a voltage ramp was applied from −120 to +100 mV, 400 ms in duration. Currents elicited were quantified at −80 mV and +80 mV. The internal solution consisted of 140 mM cesium aspartate, 10 mM HEDTA, 2 mM CaCl2, 2.27 mM MgCl2 and 10 mM HEPES, pH 7.2, with 1,400 nM calculated free Ca^2+. The external solution consisted of 150 mM NaCl, 4.5 mM KCl, 1 mM MgCl2, 2 mM CaCl2, 10 mM HEPES, 10 mM glucose, 1 mM EGTA, pH 7.4. Upon addition of LaCl3, TRPC5 current was induced only in TRPC5-expressing cells and not in parental HEK293 TREx cells. Removal of the LaCl3 stimulus causes most of the current to go away. Potential blockers were tested for ability to block both inward and outward currents in the continued presence of LaCl3.
IC50 of a compound of Formula (I) was estimated by testing the compound at 5 μM and 500 nM. […] IC50 for a compound of Formula (I) between 500 nM and 5 μM was similarly estimated.

[2] = target: T1, TRPC5 channel; assay: High throughput screening assay: Fluo4 cell-based fluorescence assay of intracellular Ca2+ rise; conditions: HEK293/TREx cells inducibly expressing TRPC5, 0.027-20 μM in triplicate, NF = no IC50 curve could be fit
Source text: The assay depended on detection of the rise in intracellular Ca2+ concentration ([Ca2+]i) following channel activation in cells inducibly expressing the TRPC5 channel. Ca2+ rise was quantified with the use of fluorescent Ca2+ indicators that were loaded into cells and thereafter indicated the [Ca2+]i Ca2+ influx followed activation of the TRPC5 channel. Compounds inhibiting the [Ca2+]i rise were considered hits for further investigation.
The commercially available HEK293/TREx line (Invitrogen) was stably transfected with a TRPC5 construct and screened by conventional calcium imaging to find clones with TRPC5 expression following stimulation with 1 μg/ml tetracycline. These cells were maintained in the growth medium recommended by the manufacturer supplemented with 100 μg/ml hygromycin to promote retention of the TRPC5 construct. After growing to near confluency, cells were plated at a density of ˜35,000 cells/well in 384 well CellBind plates (Corning) in the presence of 1 μg/ml tetracycline, and allowed to grow for 20-30 hrs. A nearly confluent monolayer resulted. Cells were then loaded with Ca2+ dye: Fura-2/AM or Fluo4/AM was added to the wells to a final concentration of 4 μM or 0.5 μM, respectively, and incubated for 80 min or 60 min, respectively, at room temperature. Supernatant was then removed from the cells by inverting plates with a sharp flick, and 25 μl Hank's Balanced Salt Solution (HBSS; 0.185 g/l D-glucose, 0.9767 g/l MgS04 (anhydrous), 0.4 g/l KCl, 0.06 g/l KH2PO4 (anhydrous), 0.35 g/l NaHCO3, 8.0 g/l NaCl, and 0.04788 g/l Na2HPO4 (anhydrous); pH 7.4) was then added to each well. Following ˜0.5 hour for recovery from loading, cells were assayed using the Hamamatsu FDSS 6000 system, which permitted illumination alternately at 340 nm and 380 nm for Fura-2 experiments, or at 485 nm for Fluo4 experiments. Frames were acquired at a rate of 0.2 Hz. During the assay, the plates were continuously vortexed, with pipette mixing of wells following addition of each reagent. For the screening assay, 26 μl of a diluted compound stock (at 50 μM) was added to each well for 2 minutes following the collection of a short (4 frame) baseline. 13 μl 62 mM high-Ca2+Ringer solution (4.17 ml of normal ringer (with 2 mM Ca2+) plus 5.83 ml of isotonic calcium ringer (105 mM Ca2+; in this ringer all sodium has been replaced with calcium)) was then added to each well, achieving a final concentration of 14 mM Ca2+ and 10 μM test compound. Data was collected for ˜3 minutes following addition of high Ca2+Ringer, where the fluorescent intensity (for Fluo4) and the F340/F380 ratio (for Fura-2) were proportional to the [Ca2+]i Negative controls consisted of HEK293/TREx TRPC5 cells exposed to high Ca2+ solution, but no compound. Positive control conditions consisted of addition of 2-APB, a promiscuous blocker of TRPC5 and other channels, to columns 23 and 24 of the plates, to a final concentration of 200 μM. These controls defined a screening window, and “hits” were defined as those compounds inhibiting the fluorescence response by at least 40%. IC50 values were determined for compounds defined as “hits.” The Fluo4 cell-based fluorescence assay was used to determine the intracellular Ca2+ concentration in the presence of varying drug concentration. Final concentrations of compounds tested were 20 μM, 6.667 μM, 2.222 μM, 0.741 μM, 0.247 μM, 0.082 μM, and 0.027 μM. Compounds were tested in triplicate at all concentrations. Standard software was used to fit IC50 curves. A value of NF was assigned when no IC50 curves could not be fit.
Additionally or alternatively, efficacy can be represented as % inhibition in the presence (of a given concentration of compound) versus the absence of compound or in comparison to a control compound. For example, efficacy can be represented as % inhibition of ion flux in the presence versus the absence of compound.

Row | SMILES | IC50 [1] | IC50 [2]
1 | Cn1c(=O)n(CCCO)c(=O)c2c(Cc3ccc(Cl)cn3)c(-c3cccc(OC(F)(F)F)c3)cnc21 [Compound 35, 5-((5-chloropyridin-2-yl)methyl)-3-(3-hydroxypropyl)-1-methyl-6-(3-(trifluoromethoxy)phenyl)pyrido[2,3-d]pyrimidine-2,4(1H,3H)-dione] | 3.4 nM | 14 nM
2 | CC(C)Oc1cnc2c(c1Cc1ccc(Cl)cc1)c(=O)n(CCCO)c(=O)n2C [Compound 36, 5-(4-chlorobenzyl)-3-(3-hydroxypropyl)-6-isopropoxy-1-methylpyrido[2,3-d]pyrimidine-2,4(1H,3H)-dione] | 1.2 nM | 27 nM
3 | CC(C)Oc1cnc2c(c1Cc1ccccc1)c(=O)n(CCCO)c(=O)n2C [Compound 29, 5-benzyl-3-(3-hydroxypropyl)-6-isopropoxy-1-methylpyrido[2,3-d]pyrimidine-2,4(1H,3H)-dione] | 4.5 nM | 27 nM
4 | Cn1c(=O)n(CCCO)c(=O)c2c(Cc3ccc(F)cc3)c(Oc3ccc(Cl)cc3)cnc21 [Compound 30, 6-(4-chlorophenoxy)-5-(4-fluorobenzyl)-3-(3-hydroxypropyl)-1-methylpyrido[2,3-d]pyrimidine-2,4(1H,3H)-dione] | < 1 nM | 357 nM
5 | CC(C)CCc1c(-c2ccccc2C(C)C)cnc2c1c(=O)n(CCCO)c(=O)n2C [Compound 23, 3-(3-hydroxypropyl)-5-isopentyl-6-(2-isopropylphenyl)-1-methylpyrido[2,3-d]pyrimidine-2,4(1H,3H)-dione] | 12.2 nM | 6490 nM
6 | CC(C)Oc1cnc2c(c1Cc1ccc(F)cc1)c(=O)n(CCCO)c(=O)n2C [Compound 31, 5-(4-fluorobenzyl)-3-(3-hydroxypropyl)-6-isopropoxy-1-methylpyrido[2,3-d]pyrimidine-2,4(1H,3H)-dione] | 1.47 nM | 27 nM
7 | Cn1c(=O)n(CCCO)c(=O)c2c(Cc3ccccc3)c(-c3cccc(F)c3)cnc21 [Compound 34, 5-benzyl-6-(3-fluorophenyl)-3-(3-hydroxypropyl)-1-methylpyrido[2,3-d]pyrimidine-2,4(1H,3H)-dione] | 8.3 nM | 154 nM
8 | Cn1c(=O)n(CCCO)c(=O)c2c(Cc3ccc(Cl)cc3)c(Oc3cccc(OC(F)(F)F)c3)cnc21 [Compound 21, 5-(4-chlorobenzyl)-3-(3-hydroxypropyl)-1-methyl-6-(3-(trifluoromethoxy)phenoxy)pyrido[2,3-d]pyrimidine-2,4(1H,3H)-dione] | < 1 nM | 269 nM
